Assay results published in patent US20240132484A1, “BROAD SPECTRUM ANTIVIRAL COMPOUNDS TARGETING THE SKI COMPLEX” (priority 2020, published 2024).
Values joined by “and” are separate entries in the source; they are usually repeats but may differ in a detail not shown here. Identical values can stand only once. Like-named read-outs stand apart in the source and are kept apart here.

What was measured:
SARS2 = format: cell-based, SARS-CoV-2; settings: for Percentage Inhibition Average 1 μM / Screening data (Relative infection to DMSO controls) Average 1 μM: SARS2, 1 μM; for Screening data (Relative infection to DMSO controls) Average 1 μM / Screening data (Relative infection to DMSO controls) Average 5 μM / Screening data (Relative infection to DMSO controls) Average 10 μM / Screening data (Relative infection to DMSO controls) Average 25 μM / Screening data (Relative infection to DMSO controls) Average 50 μM / Average (relative infection to DMSO over the 5 tested concentrations): 100=DMSO control; for Percentage Inhibition Average 5 μM / Screening data (Relative infection to DMSO controls) Average 5 μM: SARS2, 5 μM; for Percentage Inhibition Average 10 μM / Screening data (Relative infection to DMSO controls) Average 10 μM: SARS2, 10 μM; for Percentage Inhibition Average 25 μM / Screening data (Relative infection to DMSO controls) Average 25 μM: SARS2, 25 μM; for Percentage Inhibition Average 50 μM / Screening data (Relative infection to DMSO controls) Average 50 μM: SARS2, 50 μM; for Average (relative infection to DMSO over the 5 tested concentrations): SARS2, average over 1 to 50 uM
cells (nuclei count) = settings: for Relative cell count to DMSO controls, Average 1 μM / Relative cell count to DMSO controls, Average 5 μM / Relative cell count to DMSO controls, Average 10 μM / Relative cell count to DMSO controls, Average 25 μM / Relative cell count to DMSO controls, Average 50 μM: toxicity data, 100=DMSO control; for Relative cell count to DMSO controls, Average (for correlation analysis): average value over the 5 tested concentrations (1 to 50 uM); for Toxicity Data, Average, Mean percentage relative to DMSO control: Average of Exp 1 (SMW491) and Exp 2 (SMW492)

SMILES: OC(COc1c(CNCCc2ccccc2F)cccc1N1CCNCC1)CN1CCCC1 (stereo not drawn) [SILCS22]
- SARS2 antiviral activity (SARS2): activity approaching that of UMB18
- Infection Data, Average, Mean (SARS2; Average of Exp 1-3, n 9, 1 uM): 72.38%
- Infection Data, Average, Mean (SARS2; Average of Exp 1-3, n 9, 5 uM): 70.31%
- Infection Data, Average, Mean (SARS2; Average of Exp 1-3, n 9, 10 uM): 53.13%
- Infection Data, Average, Mean (SARS2; Average of Exp 1-3, n 9, 25 uM): 6.37%
- Infection Data, Average, Mean (SARS2; Average of Exp 1-3, n 9, 50 uM): 2.68%
- Percentage Infection Relative to Appropriate DMSO Control with Avg Background Subtraction (SARS2; Exp 1 (SMW475), 1 uM, single well): 68.46% and 64.64% and 77.37%
- Percentage Infection Relative to Appropriate DMSO Control with Avg Background Subtraction (SARS2; Exp 1 (SMW475), 5 uM, single well): 32.75% and 46.98% and 35.47%
- Percentage Infection Relative to Appropriate DMSO Control with Avg Background Subtraction (SARS2; Exp 1 (SMW475), 10 uM, single well): 15.62% and 28.80% and 29.55%
- Percentage Infection Relative to Appropriate DMSO Control with Avg Background Subtraction (SARS2; Exp 1 (SMW475), 25 uM, single well): 2.49% and 6.38% and 4.75%
- Percentage Infection Relative to Appropriate DMSO Control with Avg Background Subtraction (SARS2; Exp 1 (SMW475), 50 uM, single well): 0.02% and 3.92% and 4.65%
- Percentage Infection Relative to Appropriate DMSO Control with Avg Background Subtraction (SARS2; Exp 2 (SMW477), 1 uM, single well): 76.88% and 75.65% and 76.95%
- Percentage Infection Relative to Appropriate DMSO Control with Avg Background Subtraction (SARS2; Exp 2 (SMW477), 5 uM, single well): 93.66% and 92.49% and 88.62%
- Percentage Infection Relative to Appropriate DMSO Control with Avg Background Subtraction (SARS2; Exp 2 (SMW477), 10 uM, single well): 68.54% and 46.53% and 47.36%
- Percentage Infection Relative to Appropriate DMSO Control with Avg Background Subtraction (SARS2; Exp 2 (SMW477), 25 uM, single well): 5.13% and 4.50% and 4.04%
- Percentage Infection Relative to Appropriate DMSO Control with Avg Background Subtraction (SARS2; Exp 2 (SMW477), 50 uM, single well): 3.65% and 0.99% and 1.90%
- Percentage Infection Relative to Appropriate DMSO Control with Avg Background Subtraction (SARS2; Exp 3 (SMW478), 1 uM, single well): 62.06% and 83.81% and 65.64%
- Percentage Infection Relative to Appropriate DMSO Control with Avg Background Subtraction (SARS2; Exp 3 (SMW478), 5 uM, single well): 69.69% and 88.68% and 84.47%
- Percentage Infection Relative to Appropriate DMSO Control with Avg Background Subtraction (SARS2; Exp 3 (SMW478), 10 uM, single well): 92.75% and 69.87% and 79.13%
- Percentage Infection Relative to Appropriate DMSO Control with Avg Background Subtraction (SARS2; Exp 3 (SMW478), 25 uM, single well): 8.14% and 10.91% and 10.99%
- Percentage Infection Relative to Appropriate DMSO Control with Avg Background Subtraction (SARS2; Exp 3 (SMW478), 50 uM, single well): 1.60% and 3.82% and 3.54%
- Percentage Inhibition Average 1 μM (SARS2): 27.62%
- Screening data (Relative infection to DMSO controls) Average 1 μM (SARS2): 72.38
- Percentage Inhibition Average 5 μM (SARS2): 29.69%
- Screening data (Relative infection to DMSO controls) Average 5 μM (SARS2): 70.31
- Percentage Inhibition Average 10 μM (SARS2): 46.87%
- Screening data (Relative infection to DMSO controls) Average 10 μM (SARS2): 53.13
- Percentage Inhibition Average 25 μM (SARS2): 93.63%
- Screening data (Relative infection to DMSO controls) Average 25 μM (SARS2): 6.37
- Percentage Inhibition Average 50 μM (SARS2): 97.32%
- Screening data (Relative infection to DMSO controls) Average 50 μM (SARS2): 2.68
- Average (relative infection to DMSO over the 5 tested concentrations) (SARS2): 40.97
- Relative cell count to DMSO controls, Average 1 μM (cells (nuclei count)): 126.41
- Relative cell count to DMSO controls, Average 5 μM (cells (nuclei count)): 125.64
- Relative cell count to DMSO controls, Average 10 μM (cells (nuclei count)): 137.18
- Relative cell count to DMSO controls, Average 25 μM (cells (nuclei count)): 131.85
- Relative cell count to DMSO controls, Average 50 μM (cells (nuclei count)): 68.81
- Toxicity Data, Average, Mean (cells (nuclei count); Average of Exp 1-3, n 9, 1 uM): 126.41%
- Toxicity Data, Average, Mean (cells (nuclei count); Average of Exp 1-3, n 9, 5 uM): 125.64%
- Toxicity Data, Average, Mean (cells (nuclei count); Average of Exp 1-3, n 9, 10 uM): 137.18%
- Toxicity Data, Average, Mean (cells (nuclei count); Average of Exp 1-3, n 9, 25 uM): 131.85%
- Toxicity Data, Average, Mean (cells (nuclei count); Average of Exp 1-3, n 9, 50 uM): 68.81%
- Relative cell count to DMSO controls, Average (for correlation analysis) (cells (nuclei count)): 117.98

SMILES: CCN(CC)CCN(Cc1ccncc1)C(=O)c1cccs1 [SILCS38]
- Percentage Infection Relative to Appropriate DMSO Control with Avg Background Subtraction (SARS2; Exp 1 (SMW491), 1 uM, Nunc Celigo plates): 101.61% and 80.30%
- Percentage Infection Relative to Appropriate DMSO Control with Avg Background Subtraction (SARS2; Exp 1 (SMW491), 5 uM, Nunc Celigo plates): 101.51% and 104.07%
- Percentage Infection Relative to Appropriate DMSO Control with Avg Background Subtraction (SARS2; Exp 1 (SMW491), 10 uM, Nunc Celigo plates): 91.03% and 87.80%
- Percentage Infection Relative to Appropriate DMSO Control with Avg Background Subtraction (SARS2; Exp 1 (SMW491), 25 uM, Nunc Celigo plates): 110.71% and 103.81%
- Percentage Infection Relative to Appropriate DMSO Control with Avg Background Subtraction (SARS2; Exp 1 (SMW491), 50 uM, Nunc Celigo plates): 96.25% and 89.03%
- Percentage Infection Relative to Appropriate DMSO Control with Avg Background Subtraction (SARS2; Exp 2 (SMW492), 1 uM, Nunc Celigo plates): 74.34% and 48.74%
- Percentage Infection Relative to Appropriate DMSO Control with Avg Background Subtraction (SARS2; Exp 2 (SMW492), 5 uM, Nunc Celigo plates): 72.80% and 60.72%
- Percentage Infection Relative to Appropriate DMSO Control with Avg Background Subtraction (SARS2; Exp 2 (SMW492), 10 uM, Nunc Celigo plates): 63.76% and 49.65%
- Percentage Infection Relative to Appropriate DMSO Control with Avg Background Subtraction (SARS2; Exp 2 (SMW492), 50 uM, Nunc Celigo plates): 90.22% and 70.45%
- Percentage Inhibition Average 1 μM (SARS2): 23.75%
- Screening data (Relative infection to DMSO controls) Average 1 μM (SARS2): 76.25
- Percentage Inhibition Average 5 μM (SARS2): 15.22%
- Screening data (Relative infection to DMSO controls) Average 5 μM (SARS2): 84.78
- Percentage Inhibition Average 10 μM (SARS2): 26.94%
- Screening data (Relative infection to DMSO controls) Average 10 μM (SARS2): 73.06
- Percentage Inhibition Average 25 μM (SARS2): 1.37%
- Screening data (Relative infection to DMSO controls) Average 25 μM (SARS2): 98.63
- Percentage Inhibition Average 50 μM (SARS2): 13.51%
- Screening data (Relative infection to DMSO controls) Average 50 μM (SARS2): 86.49
- Average (relative infection to DMSO over the 5 tested concentrations) (SARS2): 83.84
- Infection Data, Average, Mean (SARS2; average of Exp 1-2 (SMW491, SMW492), n 4, 1 uM): 76.25%
- Infection Data, Average, Mean (SARS2; average of Exp 1-2 (SMW491, SMW492), n 4, 5 uM): 84.78%
- Infection Data, Average, Mean (SARS2; average of Exp 1-2 (SMW491, SMW492), n 4, 10 uM): 73.06%
- Infection Data, Average, Mean (SARS2; average of Exp 1-2 (SMW491, SMW492), n 4, 25 uM): 98.63%
- Infection Data, Average, Mean (SARS2; average of Exp 1-2 (SMW491, SMW492), n 4, 50 uM): 86.49%
- Relative cell count to DMSO controls, Average 1 μM (cells (nuclei count)): 111.85
- Relative cell count to DMSO controls, Average 5 μM (cells (nuclei count)): 110
- Relative cell count to DMSO controls, Average 10 μM (cells (nuclei count)): 115.05
- Relative cell count to DMSO controls, Average 25 μM (cells (nuclei count)): 107.71
- Relative cell count to DMSO controls, Average 50 μM (cells (nuclei count)): 105.21
- Toxicity Data, Average, Mean percentage relative to DMSO control (cells (nuclei count); n=4, 1 uM): 111.85%
- Toxicity Data, Average, Mean percentage relative to DMSO control (cells (nuclei count); n=4, 5 uM): 110.00%
- Toxicity Data, Average, Mean percentage relative to DMSO control (cells (nuclei count); n=4, 10 uM): 115.05%
- Toxicity Data, Average, Mean percentage relative to DMSO control (cells (nuclei count); n=4, 25 uM): 107.71%
- Toxicity Data, Average, Mean percentage relative to DMSO control (cells (nuclei count); n=4, 50 uM): 105.21%
- Relative cell count to DMSO controls, Average (for correlation analysis) (cells (nuclei count)): 109.96

SMILES: COc1ccc(-c2[nH]ncc2C(=O)NCC2CCCCC2)cc1OC [SILCS52]
- Percentage Inhibition Average 1 μM (SARS2): 7.72%
- Screening data (Relative infection to DMSO controls) Average 1 μM (SARS2): 92.28
- Percentage Inhibition Average 5 μM (SARS2): −17.76%
- Screening data (Relative infection to DMSO controls) Average 5 μM (SARS2): 117.76
- Percentage Inhibition Average 10 μM (SARS2): −4.43%
- Screening data (Relative infection to DMSO controls) Average 10 μM (SARS2): 104.43
- Percentage Inhibition Average 25 μM (SARS2): −20.98%
- Screening data (Relative infection to DMSO controls) Average 25 μM (SARS2): 120.98
- Percentage Inhibition Average 50 μM (SARS2): −22.98%
- Screening data (Relative infection to DMSO controls) Average 50 μM (SARS2): 122.98
- Average (relative infection to DMSO over the 5 tested concentrations) (SARS2): 111.69
- Relative cell count to DMSO controls, Average 1 μM (cells (nuclei count)): 103.3
- Relative cell count to DMSO controls, Average 5 μM (cells (nuclei count)): 97.63
- Relative cell count to DMSO controls, Average 10 μM (cells (nuclei count)): 97.92
- Relative cell count to DMSO controls, Average 25 μM (cells (nuclei count)): 94.91
- Relative cell count to DMSO controls, Average 50 μM (cells (nuclei count)): 81.04
- Relative cell count to DMSO controls, Average (for correlation analysis) (cells (nuclei count)): 94.96
